Reference: ChEMBL document CHEMBL4373744, “Modifying the lipophilic part of phenylthiazole antibiotics to control their drug-likeness” (Eur J Med Chem, 2020)
Converted amounts (≈) assume the structure as drawn.

Columns and labels:
Escherichia coli [1] = experiment: Antimicrobial activity against Escherichia coli BW25113 by broth liquid microdilution method; format: functional
Staphylococcus aureus [2] = experiment: microbe, parasite or virus in culture; settings: NRS384
Description: Antimicrobial activity against methicillin-resistant Staphylococcus aureus NRS384 by broth liquid microdilution method

Escherichia coli [3] = experiment: Antimicrobial activity against Escherichia coli JW55031 harboring deltatolC mutant by broth liquid microdilution method; format: functional
Streptococcus pneumoniae [4] = experiment: Antimicrobial activity against cephalosporin-resistant Streptococcus pneumoniae ATCC 51916 by broth liquid microdilution method; format: functional
Enterococcus faecalis = experiment: microbe, parasite or virus in culture; settings: ATCC 51299
Staphylococcus aureus [5] = experiment: microbe, parasite or virus in culture; settings: ATCC 6538
Description: Antimicrobial activity against methicillin-sensitive Staphylococcus aureus ATCC 6538 by broth liquid microdilution method

Staphylococcus aureus [6] = experiment: microbe, parasite or virus in culture; settings: NRS123
Description: Antimicrobial activity against methicillin-resistant Staphylococcus aureus NRS123 by broth liquid microdilution method

Enterococcus faecium = experiment: Antimicrobial activity against vancomycin-resistant Enterococcus faecium ATCC 700221 by broth liquid microdilution method; format: functional
Staphylococcus aureus [7] = experiment: microbe, parasite or virus in culture; settings: NRS 385
Description: Antimicrobial activity against methicillin-resistant Staphylococcus aureus NRS 385 by broth liquid microdilution method

Listeria monocytogenes = experiment: Antimicrobial activity against Listeria monocytogenes ATCC 19111 by broth liquid microdilution method; format: functional
Streptococcus pneumoniae [8] = experiment: Antimicrobial activity against methicillin-resistant Streptococcus pneumoniae ATCC 700677 by broth liquid microdilution method; format: functional
Staphylococcus aureus [9] = experiment: microbe, parasite or virus in culture; settings: NRS119
Description: Antimicrobial activity against methicillin-resistant Staphylococcus aureus NRS119 by broth liquid microdilution method

Staphylococcus aureus [10] = experiment: Antimicrobial activity against vancomycin-resistant Staphylococcus aureus 12 by broth liquid microdilution method; format: functional
Staphylococcus aureus [11] = experiment: microbe, parasite or virus in culture; settings: NRS 386
Description: Antimicrobial activity against methicillin-resistant Staphylococcus aureus NRS 386 by broth liquid microdilution method

[12] = system: Staphylococcus epidermidis; experiment: Antimicrobial activity against methicillin-resistant Staphylococcus epidermidis NRS101 by broth liquid microdilution method; format: functional
Staphylococcus aureus [13] = experiment: microbe, parasite or virus in culture; settings: NRS 107
Description: Antimicrobial activity against methicillin-sensitive Staphylococcus aureus NRS 107 by broth liquid microdilution method

Staphylococcus aureus [14] = experiment: Antimicrobial activity against vancomycin-resistant Staphylococcus aureus 10 by broth liquid microdilution method; format: functional

Compound: C/C(=N\NC(=N)N)c1sc(-c2ccc(C#CCCN3CCCC3)cc2)nc1C
- MIC (Escherichia coli [1]): > 64 µg/mL
- MIC (Staphylococcus aureus [2]): 16 µg/mL (≈ 40.6 µM)
- MIC (Escherichia coli [3]): > 64 µg/mL

Compound: C/C(=N\NC(=N)N)c1sc(-c2ccc(OCCCN3CCCCCC3)cc2)nc1C
- MIC (Escherichia coli [1]): > 64 µg/mL
- MIC (Staphylococcus aureus [2]): 64 µg/mL (≈ 149 µM)
- MIC (Escherichia coli [3]): > 64 µg/mL

Compound: C/C(=N\NC(=N)N)c1sc(-c2ccc(OCCCCCN3CCSC3)cc2)nc1C
- MIC (Escherichia coli [1]): > 64 µg/mL
- MIC (Staphylococcus aureus [2]): > 64 µg/mL
- MIC (Escherichia coli [3]): > 64 µg/mL

Compound: C/C(=N\NC(=N)N)c1sc(-c2ccc(OCCCCN3CCCCCC3)cc2)nc1C
- MIC (Escherichia coli [1]): > 64 µg/mL
- MIC (Staphylococcus aureus [2]): > 64 µg/mL
- MIC (Escherichia coli [3]): > 64 µg/mL

Compound: C/C(=N\NC(=N)N)c1sc(-c2ccc(OCCCCCN3CCSCC3)cc2)nc1C
- MIC (Escherichia coli [1]): > 64 µg/mL
- MIC (Staphylococcus aureus [2]): > 64 µg/mL
- MIC (Escherichia coli [3]): > 64 µg/mL

Compound: C/C(=N\NC(=N)N)c1sc(-c2ccc(OCCCCN3CCC3)cc2)nc1C
- MIC (Escherichia coli [1]): > 64 µg/mL
- MIC (Staphylococcus aureus [2]): 8 µg/mL (≈ 20 µM)
- MIC (Escherichia coli [3]): 16 µg/mL (≈ 39.9 µM)

Compound: C/C(=N\NC(=N)N)c1sc(-c2ccc(C#CCCN3CCCC(C)C3)cc2)nc1C (stereo unspecified)
- MIC (Escherichia coli [1]): > 64 µg/mL
- MIC (Staphylococcus aureus [2]): 8 µg/mL (≈ 18.9 µM)
- MIC (Escherichia coli [3]): 64 µg/mL (≈ 151 µM)

Compound: C/C(=N\NC(=N)N)c1sc(-c2ccc(OCCCCN3CCCCC3)cc2)nc1C
- MIC (Escherichia coli [1]): > 64 µg/mL
- MIC (Staphylococcus aureus [2]): > 64 µg/mL
- MIC (Escherichia coli [3]): > 64 µg/mL

Compound: C/C(=N\NC(=N)N)c1sc(-c2ccc(OCCCCN3CCSC3)cc2)nc1C
- MIC (Escherichia coli [1]): > 64 µg/mL
- MIC (Staphylococcus aureus [2]): > 64 µg/mL
- MIC (Escherichia coli [3]): > 64 µg/mL

Compound: C/C(=N\NC(=N)N)c1sc(-c2ccc(OCCCCCN3CCCCC3)cc2)nc1C
- MIC (Escherichia coli [1]): > 64 µg/mL
- MIC (Staphylococcus aureus [2]): 16 µg/mL (≈ 36.1 µM)
- MIC (Escherichia coli [3]): 16 µg/mL (≈ 36.1 µM)

Compound: C/C(=N\NC(=N)N)c1sc(-c2ccc(C#CCCN3CCN(C)CC3)cc2)nc1C
- MIC (Escherichia coli [1]): > 64 µg/mL
- MIC (Staphylococcus aureus [2]): 16 µg/mL (≈ 37.8 µM)
- MIC (Escherichia coli [3]): 32 µg/mL (≈ 75.5 µM)

Compound: C/C(=N\NC(=N)N)c1sc(-c2ccc(OCCCN3CCCCC3)cc2)nc1C
- MIC (Escherichia coli [1]): > 64 µg/mL
- MIC (Staphylococcus aureus [2]): 32 µg/mL (≈ 77.2 µM)
- MIC (Escherichia coli [3]): 64 µg/mL (≈ 154 µM)

Compound: C/C(=N\NC(=N)N)c1sc(-c2ccc(C#CCCN3CCOCC3)cc2)nc1C
- MIC (Escherichia coli [1]): > 64 µg/mL
- MIC (Staphylococcus aureus [2]): 32 µg/mL (≈ 77.9 µM)
- MIC (Escherichia coli [3]): 64 µg/mL (≈ 156 µM)

Compound: C/C(=N\NC(=N)N)c1sc(-c2ccc(OCCCN3CCCC(C)C3)cc2)nc1C (stereo unspecified)
- MIC (Escherichia coli [1]): > 64 µg/mL
- MIC (Staphylococcus aureus [2]): 64 µg/mL (≈ 149 µM)
- MIC (Escherichia coli [3]): > 64 µg/mL

Compound: C/C(=N\NC(=N)N)c1sc(-c2ccc(OCCCCCn3ccnc3)cc2)nc1C
- MIC (Escherichia coli [1]): > 64 µg/mL
- MIC (Staphylococcus aureus [2]): > 64 µg/mL
- MIC (Escherichia coli [3]): > 64 µg/mL

Compound: C/C(=N\NC(=N)N)c1sc(-c2ccc(OCCCCCN3CCCCCC3)cc2)nc1C
- MIC (Escherichia coli [1]): > 64 µg/mL
- MIC (Staphylococcus aureus [2]): > 64 µg/mL
- MIC (Escherichia coli [3]): > 64 µg/mL

Compound: CC(=O)NC[C@H]1CN(c2ccc(N3CCOCC3)c(F)c2)C(=O)O1 [LINEZOLID]
- MBC (Streptococcus pneumoniae [4]): 32 µg/mL (≈ 94.9 µM)
- MBC (Enterococcus faecalis): 16 µg/mL (≈ 47.4 µM)
- MBC (Staphylococcus aureus [5]): 16 µg/mL (≈ 47.4 µM)
- MIC (Staphylococcus aureus [5]): 1 µg/mL (≈ 2.96 µM)
- MBC (Staphylococcus aureus [6]): 32 µg/mL (≈ 94.9 µM)
- MIC (Staphylococcus aureus [6]): 1 µg/mL (≈ 2.96 µM)
- MBC (Enterococcus faecium): 16 µg/mL (≈ 47.4 µM)
- MIC (Enterococcus faecium): 1 µg/mL (≈ 2.96 µM)
- MBC (Staphylococcus aureus [2]): 32 µg/mL (≈ 94.9 µM)
- MIC (Staphylococcus aureus [2]): 1 µg/mL (≈ 2.96 µM)
- MBC (Staphylococcus aureus [7]): 32 µg/mL (≈ 94.9 µM)
- MIC (Staphylococcus aureus [7]): 1 µg/mL (≈ 2.96 µM)
- MBC (Listeria monocytogenes): 16 µg/mL (≈ 47.4 µM)
- MIC (Listeria monocytogenes): ≤ 0.5 µg/mL
- MBC (Streptococcus pneumoniae [8]): 16 µg/mL (≈ 47.4 µM)
- MBC (Staphylococcus aureus [9]): > 64 µg/mL
- MIC (Staphylococcus aureus [9]): 64 µg/mL (≈ 190 µM)
- MBC (Staphylococcus aureus [10]): 64 µg/mL (≈ 190 µM)
- MIC (Staphylococcus aureus [10]): 1 µg/mL (≈ 2.96 µM)
- MBC (Staphylococcus aureus [11]): 64 µg/mL (≈ 190 µM)
- MBC [12]: 16 µg/mL (≈ 47.4 µM)
- MIC [12]: 1 µg/mL (≈ 2.96 µM)
- MBC (Staphylococcus aureus [13]): 64 µg/mL (≈ 190 µM)
- MIC (Staphylococcus aureus [13]): 1 µg/mL (≈ 2.96 µM)
- MBC (Staphylococcus aureus [14]): > 64 µg/mL
- MIC (Staphylococcus aureus [14]): 1 µg/mL (≈ 2.96 µM)

Compound: C/C(=N\NC(=N)N)c1sc(-c2ccc(OCCCN3CCSCC3)cc2)nc1C
- MIC (Escherichia coli [1]): > 64 µg/mL
- MIC (Staphylococcus aureus [2]): 32 µg/mL (≈ 74 µM)
- MIC (Escherichia coli [3]): 64 µg/mL (≈ 148 µM)

Compound: C/C(=N\NC(=N)N)c1sc(-c2ccc(OCCCCN3CCCCC3C)cc2)nc1C (stereo unspecified)
- MIC (Escherichia coli [1]): > 64 µg/mL
- MIC (Staphylococcus aureus [2]): > 64 µg/mL
- MIC (Escherichia coli [3]): > 64 µg/mL

Compound: C/C(=N\NC(=N)N)c1sc(-c2ccc(OCCCCCN3CCCC3)cc2)nc1C
- MIC (Escherichia coli [1]): > 64 µg/mL
- MIC (Staphylococcus aureus [2]): > 64 µg/mL
- MIC (Escherichia coli [3]): > 64 µg/mL

Compound: C/C(=N\NC(=N)N)c1sc(-c2ccc(C#CCCN3CCC(C)CC3)cc2)nc1C
- MIC (Escherichia coli [1]): > 64 µg/mL
- MIC (Staphylococcus aureus [2]): 16 µg/mL (≈ 37.9 µM)
- MIC (Escherichia coli [3]): > 64 µg/mL

Compound: C/C(=N\NC(=N)N)c1sc(-c2ccc(OCCCN3CCC4CCCCC4C3)cc2)nc1C (stereo unspecified)
- MIC (Escherichia coli [1]): > 64 µg/mL
- MIC (Staphylococcus aureus [2]): 64 µg/mL (≈ 137 µM)
- MIC (Escherichia coli [3]): > 64 µg/mL

Compound: C/C(=N\NC(=N)N)c1sc(-c2ccc(OCCCCN3CCCC(C)C3)cc2)nc1C (stereo unspecified)
- MIC (Escherichia coli [1]): > 64 µg/mL
- MIC (Staphylococcus aureus [2]): > 64 µg/mL
- MIC (Escherichia coli [3]): > 64 µg/mL

Compound: C/C(=N\NC(=N)N)c1sc(-c2ccc(OCCCCN3CCOCC3)cc2)nc1C
- MIC (Escherichia coli [1]): > 64 µg/mL
- MIC (Staphylococcus aureus [2]): > 64 µg/mL
- MIC (Escherichia coli [3]): > 64 µg/mL

Compound: C/C(=N\NC(=N)N)c1sc(-c2ccc(OCCCCN3CCC(C)CC3)cc2)nc1C
- MIC (Escherichia coli [1]): > 64 µg/mL
- MIC (Staphylococcus aureus [2]): 32 µg/mL (≈ 72.3 µM)
- MIC (Escherichia coli [3]): 32 µg/mL (≈ 72.3 µM)

Compound: C/C(=N\NC(=N)N)c1sc(-c2ccc(OCCCCCN3CCCCC3C)cc2)nc1C (stereo unspecified)
- MIC (Escherichia coli [1]): > 64 µg/mL
- MIC (Staphylococcus aureus [2]): 32 µg/mL (≈ 70.1 µM)
- MIC (Escherichia coli [3]): 32 µg/mL (≈ 70.1 µM)
